Holding throughout (type): cell-based
Assay [1] deals with MYB mRNA. Kind of assay: Splicing RT-qPCR assay, canonical (CJ) and alternative (AJ) junction mRNA, K562 cells. The conditions noted are these: Homo sapiens, K562.3 cells, 24 hours; for AC50: read-out: MYB AJ (AC50, increase in AJ mRNA); for IC50: read-out: MYB CJ (IC50, decrease in CJ mRNA). As to the method: (§1) Compounds described herein were used to modulate RNA transcript abundance in cells. The expression of a target mRNA was measured by detecting the formation of an exon-exon junction in the canonical transcript (CJ). A compound mediated exon-inclusion event was detected by observing an increase in formation of a new junction with an alternative exon (AJ). Real-time qPCR assays were used to detect these splicing switches and interrogate the potency of various compounds towards different target genes. A high-throughput real time quantitative PCR (RT-qPCR) assay was developed to measure these two isoforms of the mRNA (CJ and AJ) for exemplary genes, such as HTT, SMN2, and MYB, together with a control housekeeping gene, GAPDH or GUSB or PPIA, used for normalization. Briefly, the A673 or K562 cell line was treated with various compounds described herein (e.g., compounds of Formula (I)). After treatment, the levels of the HTT, MYB, or SMN2 mRNA targets were determined from each sample of cell lysate by cDNA synthesis followed by qPCR.
(§2) • Cells-to-CT 1-step kit: ThermoFisher A25602, Cells-to-CT lysis reagent: ThermoFisher 4391851C, TaqMan™ Fast Virus 1-Step Master Mix: ThermoFisher 4444436 • GAPDH: VIC-PL, ThermoFisher 4326317E (Assay: Hs99999905_m1)—used for K562/suspension cell lines • GUSB: VIC-PL, ThermoFisher 4326320E (Assay: Hs99999908_m1)—used for K562/suspension cell lines • PPIA: VIC-PL, ThermoFisher 4326316E (Assay: Hs99999904_m1)—used for A673/adherent cell lines
(§3) The K562 cell line was cultured in IMDM with 10% FBS. For K562, cells were diluted with full growth media and plated in either a 96-well plate (50,000 cells in 50 uL media per well) or a 384-well plate (8,000-40,000 cells in 45 uL media per well). An 11-point 3-fold serial dilution of the compounds were made in DMSO then diluted in media in an intermediate plate. Compound was transferred from the intermediate plate to the cell plate with the top dose at a final concentration of 10 uM in the well. Final DMSO concentration was kept at or below 0.25%. Final volume was 100 uL for 96-well plate and 50 uL for 384-well plate. The cell plate was then placed in an incubator at 37° C. with 5% CO2 for 24 hours.
(§4) The cells were then gently washed with 50 uL-100 uL cold PBS before proceeding to addition of lysis buffer. 30 uL-50 uL of room temperature lysis buffer with DNAse I (and optionally RNAsin) was added to each well. Cells were shaken/mixed thoroughly at room temperature for 5-10 minutes for lysis to take place and then 3 uL-5 uL of room temperature stop solution was added and wells were shaken/mixed again. After 2-5 minutes, the cell lysate plate was transferred to ice for RT-qPCR reaction setup. The lysates could also be frozen at −80° C. for later use.
(§5) In some cases, a direct lysis buffer was used. An appropriate volume of 3× lysis buffer (10 mM Tris, 150 mM NaCl, 1.5%-2.5% Igepal and 0.1-1 U/uL RNAsin, pH 7.4) was directly added to either K562 or A673 cells in media and mixed by pipetting 3 times. The plates were then incubated at room temperature with shaking/rocking for 20-50 minutes to allow for lysis to take place. After this time, the cell lysate plate was transferred to ice to set up for the RT-qPCR reactions. The lysates could also be frozen at −80° C. for later use.
(§6) To set up 10 uL RT-qPCR reactions, cell lysates were transferred to 384-well qPCR plates containing the master mix according to the table below. The plates were sealed, gently vortexed, and spun down before the run. The volumes were adjusted accordingly in some instances where the reaction was carried in 20 uL. The table below summarizes the components of the RT-qPCR reactions:
(§7) The RT-qPCR reaction was performed using a QuantStudio (ThermoFisher) under the following fast cycling conditions. All samples and standards were analyzed at least in duplicate. In some instances, bulk room temperature (RT) step of 5-10 minutes was completed for all plates before proceeding with qPCR. […]

In assay [2] the test system is HTT mRNA. The assay is described as above. The conditions noted are these: Homo sapiens, K562.3 cells, 24 hours; for AC50: read-out: HTT AJ (AC50, increase in AJ mRNA); for IC50: read-out: HTT CJ (IC50, decrease in CJ mRNA). The protocol:
as §1, §2, §3, §4, §5, §6, §7

Assay [3] relates to MYB mRNA. Kind of assay: Splicing RT-qPCR assay (THP), Table 2A. Conditions: Table 2A (THP); for AC50: AJ mRNA increase, read-out: MYB AJ (increase in alternative junction mRNA, AC50); for IC50: CJ mRNA decrease, read-out: MYB CJ (decrease in canonical junction mRNA, IC50).
In assay [4] the test system is MYB mRNA. Kind of assay: Gene panel canonical junction qPCR assay, decrease in CJ mRNA, Table 3. Conditions: decrease in canonical junction (CJ) mRNA, gene panel qPCR, Table 3. Summed up: (§8)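 A673 cells were plated, left to adhere for 24 h, then dosed; K562 cells were plated in 96- or 384-well format and dosed directly. Both were incubated 24 h at 37 °C with an 11-point 3-fold series (top 10 uM final). Canonical junction mRNA was then read by cDNA synthesis and qPCR.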
(In qPCR the cycle at which signal appears reflects the starting amount.)

Assay [5] relates to HTT mRNA. The description is as above. The conditions noted are these: decrease in canonical junction (CJ) mRNA, gene panel qPCR, Table 3. Summed up: as §8
Assay [6] has as its system SMN2 mRNA. Described as above. Conditions: decrease in canonical junction (CJ) mRNA, gene panel qPCR, Table 3. Summed up: as §8
Assay [7] deals with SH-SY5Y (human neuroblastoma) cells. In words: Cell viability, Cell Titer Glo 2.0 assay. The conditions noted are these: read-out: Viability SHSY5Y.3 GI50. Summed up:
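SH-SY5Y neuroblastoma cells are exposed to test compounds for 72 hours at 37 °C and 5% CO2, with final DMSO held at 0.1%. Cell viability is then measured with the CellTiter-Glo 2.0 assay.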

A word on the AC50: it is the concentration at which the activity in the assay is half-maximal. What is called IC50 is the concentration that inhibits the measured activity by half. In general, GI50 refers to the concentration at which growth is held to half of that of the control. Turning to `Cc1cn2cc(NC(=O)c3ccc(N4CC[C@@H](NCC5COC5)C4)c4cn(C)nc34)cc(F)c2n1` [Compound 104, N-(8-fluoro-2-methylimidazo[1,2-a]pyridin-6-yl)-2-methyl-4-[(3R)-3-[(oxetan-3-ylmethyl)amino]pyrrolidin-1-yl]indazole-7-carboxamide], the concentration at half-maximal activity (AC50) was less than 0.1 µM in assay [1], 1 to 10 µM in assay [2] and less than 0.1 µM in assay [3]. The IC50 in assay [1] was less than 0.1 µM; in assay [2], 1 to 10 µM; in assay [3], less than 0.1 µM; in assay [4], less than 0.1 µM; in assay [5], 1 to 10 µM; in assay [6] it was less than 0.1 µM. Further, in assay [7], the GI50 lay within 0.1 to 1 µM.
As to `Cc1cn2cc(NC(=O)c3ccc(N4CC[C@H](NCC(C)(C)O)C4)c4cn(C)nc34)cc(F)c2n1` [Compound 132, N-(8-fluoro-2-methyl-imidazo[1,2-a]pyridin-6-yl)-4-[(3S)-3-[(2-hydroxy-2-methylpropyl)amino]-pyrrolidin-1-yl]-2-methyl-indazole-7-carboxamide], the AC50 in assay [1] is 0.1 to 1 µM; in assay [2], greater than 10 µM; in assay [3], 0.1 to 1 µM. Further, the IC50 is 0.1 to 1 µM in assay [1]; 1 to 10 µM in assay [2]; 0.1 to 1 µM in assay [3]; 0.1 to 1 µM in assay [4]; 1 to 10 µM in assay [5]; less than 0.1 µM in assay [6]. Besides, the GI50 in assay [7] is 1 to 10 µM.
In the case of `CCNC1CCN(c2ccc(C(=O)Nc3cn4cc(C)nc4c(F)c3OC)c3[nH]ncc23)CC1` [Compound 170, 4-[4-(ethylamino)piperidin-1-yl]-N-(8-fluoro-7-methoxy-2-methylimidazo[1,2-a]pyridin-6-yl)-1H-indazole-7-carboxamide], the AC50 in assay [1] was in the range of 0.1 to 1 µM; in assay [2], 1 to 10 µM. The half-maximal inhibitory concentration (IC50) in assay [1] is less than 0.1 µM; in assay [2] it was 1 to 10 µM; in assay [4], less than 0.1 µM; in assay [5], 1 to 10 µM; in assay [6], less than 0.1 µM. Also, in assay [7], the GI50 lay in the range of 0.1 to 1 µM.
With `CCNC1CCN(c2ccc(C(=O)Nc3cn4cc(C)nc4c(F)c3OC)c3[nH]ccc23)CC1` [Compound 171, 4-[4-(ethylamino)piperidin-1-yl]-N-(8-fluoro-7-methoxy-2-methylimidazo[1,2-a]pyridin-6-yl)-1H-indole-7-carboxamide], the AC50 in assay [1] and in assay [2] was greater than 10 µM throughout. Also, the IC50 was 1 to 10 µM in assay [1]; greater than 10 µM in assay [2]; 1 to 10 µM in assay [4]; greater than 10 µM in assay [5]; 1 to 10 µM in assay [6]. Further, in assay [7], the GI50 is greater than 10 µM.
On to `CCNC1CCN(c2ccc(C(=O)Nc3cc(F)c4nc(C)cn4c3)c3[nH]ccc23)CC1` [Compound 172, 4-[4-(ethylamino)piperidin-1-yl]-N-(8-fluoro-2-methylimidazo[1,2-a]pyridin-6-yl)-1H-indole-7-carboxamide], for which the values for the AC50 in assay [1] and in assay [2] were 1 to 10 µM and greater than 10 µM, respectively. The IC50 in assay [1] is greater than 10 µM; in assay [2], greater than 10 µM; in assay [4], greater than 10 µM; in assay [5], greater than 10 µM; in assay [6], 1 to 10 µM. The GI50 in assay [7] is greater than 10 µM.
In the case of `COc1c(NC(=O)c2ccc(N3CCNCC3)c3cn[nH]c23)cn2cc(C)nc2c1F` [Compound 211, N-(8-fluoro-7-methoxy-2-methylimidazo[1,2-a]pyridin-6-yl)-4-(piperazin-1-yl)-1H-indazole-7-carboxamide], the AC50 in assay [1] is less than 0.1 µM; in assay [2] it was 0.1 to 1 µM. In addition, the IC50 in assay [1] is less than 0.1 µM; in assay [2] it was 0.1 to 1 µM; in assay [4] it was less than 0.1 µM; in assay [5], 0.1 to 1 µM; in assay [6], less than 0.1 µM. Also, the GI50 in assay [7] was in the range of 0.1 to 1 µM.
Take `Cc1cn2cc(C(=O)Nc3ccc(N4CCNCC4)c4cn[nH]c34)cc(F)c2n1` [Compound 214, 8-fluoro-2-methyl-N-(4-piperazin-1-yl-1H-indazol-7-yl) imidazo[1,2-a]pyridine-6-carboxamide]: the AC50 in assay [1] and in assay [2] was greater than 10 µM each time. Further, the IC50 in assay [1] is greater than 10 µM; in assay [2] it was 1 to 10 µM; in assay [4], greater than 10 µM; in assay [5], 1 to 10 µM; in assay [6] it was greater than 10 µM. Further, the GI50 in assay [7] was greater than 10 µM.
For the compound `Cc1cn2cc(C(=O)Nc3ccc(N4C[C@@H](C)N[C@@H](C)C4)c4cn[nH]c34)cc(F)c2n1` [Compound 215, N-[4-[(3R,5S)-3,5-dimethylpiperazin-1-yl]-1H-indazol-7-yl]-8-fluoro-2-methyl-imidazo[1,2-a]pyridine-6-carboxamide], the AC50 in assay [1] and in assay [2] was greater than 10 µM in each case. In addition, the IC50 is greater than 10 µM in assay [1]; greater than 10 µM in assay [2]; greater than 10 µM in assay [4]; greater than 10 µM in assay [5]; 1 to 10 µM in assay [6]. In addition, the GI50 in assay [7] is greater than 10 µM.
In the case of `Cc1cn2cc(NC(=O)c3c(F)cc(N4CCNCC4)c4c3CN(C)C4)cc(F)c2n1` [Compound 230, 5-fluoro-N-(8-fluoro-2-methyl-imidazo[1,2-a]pyridin-6-yl)-2-methyl-7-piperazin-1-yl-isoindoline-4-carboxamide], the AC50 in assay [1] and in assay [2] was greater than 10 µM each time. In addition, the IC50 in assay [1] was greater than 10 µM; in assay [2] it was greater than 10 µM; in assay [4] it was greater than 10 µM; in assay [5], greater than 10 µM; in assay [6] it was 1 to 10 µM. Further, the GI50 in assay [7] is greater than 10 µM.
On to `CCNC1CCN(c2ccc(C(=O)Nc3cc(F)c4nc(C)cn4c3)c3[nH]ncc23)CC1` [Compound 266, 4-[4-(ethylamino)piperidin-1-yl]-N-(8-fluoro-2-methyl-imidazo[1,2-a]pyridin-6-yl)-1H-indazole-7-carboxamide], for which the AC50 in assay [1] is 0.1 to 1 µM; in assay [2], greater than 10 µM. The IC50 in assay [1] was 0.1 to 1 µM; in assay [2], greater than 10 µM; in assay [4] it was 0.1 to 1 µM; in assay [5], greater than 10 µM; in assay [6], less than 0.1 µM. For the same compound, in assay [7], the GI50 fell in the range of 1 to 10 µM.
